The source of these data is patent US10150760B2, “Compounds for use in preparing heterocyclic triazole agonists of the APJ receptor” (AMGEN INC., priority 2016, dated 2018).

Where only a bound is given, the exact number is not on record here.

In assay [1] the test system is isolated perfused rat hearts. In words: Ex vivo isolated perfused rat heart assay (Langendorff apparatus), load independent inotropic and lusitropic effects. Also noted: species or system Sprague Dawley rat. To be noted: ex vivo isolated perfused rat heart, percent change over vehicle. The source says: Evidence for Load Independent Inotropic Effects with APJ Agonists Using Ex Vivo Assay (Isolated Perfused Rat Hearts)
Naive Sprague Dawley® SD rats (Harlan laboratories (Livermore, Calif. USA)) were anaesthetized and hearts were excised followed by cannulation in the Langendorff apparatus (Harvard apparatus, Holliston, Mass. USA) via aorta. The heart was perfused retrograde with modified oxygenated Krebs-Henseleit buffer (Skrzypiec-Spring M et al., (2007) J. Pharmacol Toxicol Methods 55: 113-126). The pressure of the solution causes the aortic valve to shut and the perfusate is then forced into the ostium and the coronary vessels. This allows the heart to beat for several h. A balloon was inserted into the left ventricle (LV) to measure dP/dtmax (derivative of left ventricular pressure) as an index of cardiac contractility. The APJ agonist was perfused constantly in a dose dependent manner into the heart to examine cardiac contractility.
Example 49.0 was infused at different concentrations and load independent contractility was measured by index of LV dP/dtmax and the results are expressed as a percent change over vehicle. […] Example 49.0 was infused at different concentrations and load independent lusitropic effect (relaxation) was measured by index of LV dP/dtmin where results are expressed as percent change over vehicle. […] Example 60.0 was infused at different concentrations and load independent contractility was measured by index of LV dP/dtmax and the results are expressed as a percent change over vehicle. […] Example 60.0 was infused at different concentrations and load independent lusitropic effect (relaxation) was measured by index of LV dP/dtmin where results are expressed as percent change over vehicle.

Assay [2] has as its target human APJ receptor (Homo sapiens (Human), UniProt P35414). In words: [35S]GTPγS binding assay on membranes from CHO cells stably expressing human APJ receptor. To be noted: read-out: Activity hAPJ SPA EC50 IP. The assay is classed as biochemical. An outline of the steps: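 Membranes from CHO cells stably expressing human APJ incubated with ligand, 0.2 nM [35S]GTPγS and WGA SPA beads in HEPES pH 7.5 with 5 mM MgCl2, 200 mM NaCl, 3 μM GDP, 90 min at RT. Nonspecific binding defined with 100 μM GTPγS; EC50 by non-linear regression.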
A general note: GTPγS is a poorly hydrolysed GTP analogue; its binding reports G protein activation.

Chain of human APJ receptor (P35414 whole entry): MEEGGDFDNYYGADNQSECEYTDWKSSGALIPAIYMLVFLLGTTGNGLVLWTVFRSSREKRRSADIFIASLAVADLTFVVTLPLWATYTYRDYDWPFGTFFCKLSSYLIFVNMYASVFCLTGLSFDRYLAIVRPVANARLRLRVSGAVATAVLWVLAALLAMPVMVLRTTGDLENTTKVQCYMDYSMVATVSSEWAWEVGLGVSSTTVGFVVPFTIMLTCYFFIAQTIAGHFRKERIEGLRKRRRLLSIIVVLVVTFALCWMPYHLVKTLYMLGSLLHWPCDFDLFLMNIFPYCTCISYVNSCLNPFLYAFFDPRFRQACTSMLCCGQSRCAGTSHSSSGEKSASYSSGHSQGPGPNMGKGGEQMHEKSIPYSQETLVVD

What is called EC50 is the concentration giving half of the maximal effect. For the compound `COc1cccc(OC)c1-n1c(NS(=O)(=O)[C@@H](C)[C@H](C)c2ncc(Cl)cn2)nnc1[C@@H]1COCCO1` (single isomer, unassigned) [Example 40.0, (2S,3R)-3-(5-chloro-2-pyrimidinyl)-N-(4-(2,6-dimethoxyphenyl)-5-((2R)-1,4-dioxan-2-yl)-4H-1,2,4-triazol-3-yl)-2-butanesulfonamide or (2S,3R)-3-(5-chloro-2-pyrimidinyl)-N-(4-(2,6-dimethoxyphenyl)-5-((2S)-1,4-dioxan-2-yl)-4H-1,2,4-triazol-3-yl)-2-butanesulfonamide], the “Isolated Heart Assay dP/dtmax (%)” value in assay [1] (contractility) was “No effect”. Besides, in assay [1] (relaxation), the “Isolated Heart Assay dP/dtmin (%)” value was “No effect”. In addition, the EC50 in assay [2] was determined as 14 nM. Turning to “(2S,3R)-N-(4-(2,6-bis((trideutero)methyloxy)phenyl)-5-((3R)-tetrahydro-3-furanyl)-4H-1,2,4-triazol-3-yl)-3-(5-chloro-2-pyrimidinyl)-2-butanesulfonamide or (2S,3R)-N-(4-(2,6-bis((trideutero)methyloxy)phenyl)-5-((3S)-tetrahydro-3-furanyl)-4H-1,2,4-triazol-3-yl)-3-(5-chloro-2-pyrimidinyl)-2-butanesulfonamide [Example 391.0]”, in assay [2], the EC50 worked out at 15 nM. Regarding “(2S,3R)-N-(4-(2,6-bis((tridutero)methyloxy)phenyl)-5-((3R)-tetrahydro-3-furanyl)-4H-1,2,4-triazol-3-yl)-3-(5-chloro-2-pyrimidinyl)-2-butanesulfonamide or (2S,3R)-N-(4-(2,6-bis((trideutero)methyloxy)phenyl)-5-((3S)-tetrahydro-3-furanyl)-4H-1,2,4-triazol-3-yl)-3-(5-chloro-2-pyrimidinyl)-2-butanesulfonamide [Example 392.0]”, in assay [2], the EC50 was 25 nM. In the case of “(2S,3R)-N-(4-(2,6-difluorophenyl)-5-((3R)-tetrahydro-3-furanyl)-4H-1,2,4-triazol-3-yl)-3-(5-methyl-2-pyrimidinyl)-2-butanesulfonamide or (2S,3R)-N-(4-(2,6-difluorophenyl)-5-((3S)-tetrahydro-3-furanyl)-4H-1,2,4-triazol-3-yl)-3-(5-methyl-2-pyrimidinyl)-2-butanesulfonamide [Example 20.0]”, in assay [2], the 50% effective concentration (EC50) stood at 160 nM.

On to “(2S,3R)-N-(4-(2,6-difluorophenyl)-5-((3R)-tetrahydro-3-furanyl)-4H-1,2,4-triazol-3-yl)-3-(5-methyl-2-pyrimidinyl)-2-butanesulfonamide or (2S,3R)-N-(4-(2,6-difluorophenyl)-5-((3S)-tetrahydro-3-furanyl)-4H-1,2,4-triazol-3-yl)-3-(5-methyl-2-pyrimidinyl)-2-butanesulfonamide [Example 21.0]”, for which the EC50 in assay [2] came out at 110 nM. On to “(2S,3R)-N-(4-(2,6-difluorophenyl)-5-((3S)-tetrahydro-2H-pyran-3-yl)-4H-1,2,4-triazol-3-yl)-3-(5-methyl-2-pyrimidinyl)-2-butanesulfonamide or (2S,3R)-N-(4-(2,6-difluorophenyl)-5-((3R)-tetrahydro-2H-pyran-3-yl)-4H-1,2,4-triazol-3-yl)-3-(5-methyl-2-pyrimidinyl)-2-butanesulfonamide [Example 22.0]”, for which, in assay [2], the EC50 is 260 nM. Same read-out and setting: the same measure for “(2S,3R)-N-(4-(2,6-difluorophenyl)-5-((3S)-tetrahydro-2H-pyran-3-yl)-4H-1,2,4-triazol-3-yl)-3-(5-methyl-2-pyrimidinyl)-2-butanesulfonamide or (2S,3R)-N-(4-(2,6-difluorophenyl)-5-((3R)-tetrahydro-2H-pyran-3-yl)-4H-1,2,4-triazol-3-yl)-3-(5-methyl-2-pyrimidinyl)-2-butanesulfonamide [Example 23.0]”: 110 nM; for “(2S,3R)-N-(4-(2,6-dimethoxyphenyl)-5-((R)-1,1-dioxidotetahydrothiophen-3-yl)-4H-1,2,4-triazol-3-yl)-3-(5-methylpyrimidin-2-yl)butane-2-sulfonamide or (2S,3R)-N-(4-(2,6-dimethoxyphenyl)-5-((S)-1,1-dioxidotetrahydrothiophen-3-yl)-4H-1,2,4-triazol-3-yl)-3-(5-methylpyrimidin-2-yl)butane-2-sulfonamide [Example 184.0]”: 1380 nM. On the same count and under the same terms, the same measure for “(2S,3R)-N-(4-(2,6-dimethoxyphenyl)-5-((R)-1,1-dioxidotetrahydrothiophen-3-yl)-4H-1,2,4-triazol-3-yl)-3-(5-methylpyrimidin-2-yl)butane-2-sulfonamide or (2S,3R)-N-(4-(2,6-dimethoxyphenyl)-5-((S)-1,1-dioxidotetrahydrothiophen-3-yl)-4H-1,2,4-triazol-3-yl)-3-(5-methylpyrimidin-2-yl)butane-2-sulfonamide [Example 183.0]”: 1060 nM; for “(2S,3R)-N-(4-(2,6-dimethoxyphenyl)-5-((R)-1,4-dioxan-2-yl)-4H-1,2,4-triazol-3-yl)-3-(5-methoxypyrazin-2-yl)butane-2-sulfonamide or (2S,3R)-N-(4-(2,6-dimethoxyphenyl)-5-((S)-1,4-dioxan-2-yl)-4H-1,2,4-triazol-3-yl)-3-(5-methoxypyrazin-2-yl)butane-2-sulfonamide [Example 207.0]”: 4.8 nM; for “(2S,3R)-N-(4-(2,6-dimethoxyphenyl)-5-((R)-1,4-dioxan-2-yl)-4H-1,2,4-triazol-3-yl)-3-(5-methoxypyrazin-2-yl)butane-2-sulfonamide or (2S,3R)-N-(4-(2,6-dimethoxyphenyl)-5-((S)-1,4-dioxan-2-yl)-4H-1,2,4-triazol-3-yl)-3-(5-methoxypyrazin-2-yl)butane-2-sulfonamide [Example 208.0]”: 20 nM. For the compound “(2S,3R)-N-(4-(2,6-dimethoxyphenyl)-5-((R)-1,4-dioxan-2-yl)-4H-1,2,4-triazol-3-yl)-3-(5-methylpyrimidin-2-yl)butane-2-sulfonamide or (2S,3R)-N-(4-(2,6-dimethoxyphenyl)-5-((S)-1,4-dioxan-2-yl)-4H-1,2,4-triazol-3-yl)-3-(5-methylpyrimidin-2-yl)butane-2-sulfonamide [Example 205.0]”, the EC50 in assay [2] is 19 nM. With “(2S,3R)-N-(4-(2,6-dimethoxyphenyl)-5-((S)-tetrahydrothiophen-2-yl)-4H-1,2,4-triazol-3-yl)-3-(5-methylpyrimidin-2-yl)butane-2-sulfonamide or (2S,3R)-N-(4-(2,6-dimethoxyphenyl)-5-((R)-tetrahydrothiophen-2-yl)-4H-1,2,4-triazol-3-yl)-3-(5-methylpyrimidin-2-yl)butane-2-sulfonamide [Example 223.0]”, in assay [2], the half-maximal effective concentration (EC50) is 12 nM. Still for that read-out and setting: the same measure for “(2S,3R)-N-(4-(2,6-dimethoxyphenyl)-5-((S)-tetrahydrothiophen-2-yl)-4H-1,2,4-triazol-3-yl)-3-(5-methylpyrimidin-2-yl)butane-2-sulfonamide or (2S,3R)-N-(4-(2,6-dimethoxyphenyl)-5-((R)-tetrahydrothiophen-2-yl)-4H-1,2,4-triazol-3-yl)-3-(5-methylpyrimidin-2-yl)butane-2-sulfonamide [Example 224.0]”: 1.5 nM. Regarding “(2S,3R)-N-(4-((1r,2R,6S)-2,6-dimethoxycyclohexyl)-5-((3S)-tetrahydro-3-furanyl)-4H-1,2,4-triazol-3-yl)-3-(5-methyl-2-pyrimidinyl)-2-butanesulfonamide or (2S,3R)-N-(4-((1r,2R,6S)-2,6-dimethoxycyclohexyl)-5-((3R)-tetrahydro-3-furanyl)-4H-1,2,4-triazol-3-yl)-3-(5-methyl-2-pyrimidinyl)-2-butanesulfonamide [Example 4.0]”, the EC50 in assay [2] was found to be 890 nM.

“(2S,3R)-N-(4-((1r,2R,6S)-2,6-dimethoxycyclohexyl)-5-((3S)-tetrahydro-3-furanyl)-4H-1,2,4-triazol-3-yl)-3-(5-methyl-2-pyrimidinyl)-2-butanesulfonamide or (2S,3R)-N-(4-((1r,2R,6S)-2,6-dimethoxycyclohexyl)-5-((3R)-tetrahydro-3-furanyl)-4H-1,2,4-triazol-3-yl)-3-(5-methyl-2-pyrimidinyl)-2-butanesulfonamide [Example 5.0]”: in assay [2], the EC50 is greater than 4200 nM. Regarding “((2S,3R)-N-(4-(2,6-dimethoxyphenyl)-5-((R)-1,4-dioxan-2-yl)-4H-1,2,4-triazol-3-yl)-3-(5-methylpyrimidin-2-yl)butane-2-sulfonamide or (2S,3R)-N-(4-(2,6-dimethoxyphenyl)-5-((S)-1,4-dioxan-2-yl)-4H-1,2,4-triazol-3-yl)-3-(5-methylpyrimidin-2-yl)butane-2-sulfonamide [Example 206.0]”, the EC50 in assay [2] stood at 35 nM.
